According to the supplement of paper PMC10307832:

Key:
Experiment in all cases: relative viability (nuclei count vs DMSO), 5 days (fraction); higher = more cells survive
Alpelisib + Olaparib = compound: Cc1nc(NC(=O)N2CCC[C@H]2C(N)=O)sc1-c1ccnc(C(C)(C)C(F)(F)F)c1 [Alpelisib] + O=C(c1cc(Cc2n[nH]c(=O)c3ccccc23)ccc1F)N1CCN(C(=O)C2CC2)CC1 [Olaparib] (partner 8 µM)
Outline: (§1)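 The day after seeding in 1536-well plates, lung cancer cell lines were treated by pin tool with a single drug, or with a fixed anchor-drug dose together with five library-drug doses (not always all listed) in √10 steps. After 5 days, a combined fix-and-stain solution (final 0.05% Triton X-100, 1% formaldehyde, 1 ug/ml Hoechst) was added. Nuclei counted on 4× images gave relative viability as treated counts over vehicle counts, reported as the median of duplicate plates.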

OSI-027 + Bortezomib = compound: COc1cccc2cc(-c3nc([C@H]4CC[C@H](C(=O)O)CC4)n4ncnc(N)c34)[nH]c12 [OSI-027] + CC(C)C[C@H](NC(=O)[C@H](Cc1ccccc1)NC(=O)c1cnccn1)B(O)O [Bortezomib] (partner 0.002 µM)
Outline: as §1

Vemurafenib + Bortezomib = compound: CCCS(=O)(=O)Nc1ccc(F)c(C(=O)c2c[nH]c3ncc(-c4ccc(Cl)cc4)cc23)c1F [Vemurafenib] + CC(C)C[C@H](NC(=O)[C@H](Cc1ccccc1)NC(=O)c1cnccn1)B(O)O [Bortezomib] (partner 0.002 µM)
Outline: as §1

Vemurafenib + AZD7762 = compound: CCCS(=O)(=O)Nc1ccc(F)c(C(=O)c2c[nH]c3ncc(-c4ccc(Cl)cc4)cc23)c1F [Vemurafenib] + NC(=O)Nc1cc(-c2cccc(F)c2)sc1C(=O)N[C@H]1CCCNC1 [AZD7762] (partner 0.2 µM)
Outline: as §1

| Cell Line | relative viability (Alpelisib + Olaparib; first compound 0.04 µM) | relative viability (Alpelisib + Olaparib; first compound 0.1265 µM) | relative viability (Alpelisib + Olaparib; first compound 0.4 µM) | relative viability (Alpelisib + Olaparib; first compound 1.265 µM) | relative viability (Alpelisib + Olaparib; first compound 4 µM) | relative viability (OSI-027 + Bortezomib; first compound 0.01 µM) | relative viability (OSI-027 + Bortezomib; first compound 0.03162 µM) | relative viability (OSI-027 + Bortezomib; first compound 0.1 µM) | relative viability (OSI-027 + Bortezomib; first compound 0.3162 µM) | relative viability (OSI-027 + Bortezomib; first compound 1 µM) | relative viability (Vemurafenib + Bortezomib; first compound 0.03162 µM) | relative viability (Vemurafenib + Bortezomib; first compound 0.1 µM) | relative viability (Vemurafenib + Bortezomib; first compound 0.3162 µM) | relative viability (Vemurafenib + Bortezomib; first compound 1 µM) | relative viability (Vemurafenib + AZD7762; first compound 0.03162 µM) | relative viability (Vemurafenib + AZD7762; first compound 0.3162 µM) | relative viability (Vemurafenib + AZD7762; first compound 1 µM) | relative viability (Vemurafenib + AZD7762; first compound 0.1 µM) |
| --- | --- | --- | --- | --- | --- | --- | --- | --- | --- | --- | --- | --- | --- | --- | --- | --- | --- | --- |
| IA-LM | 1.03 | 0.857 | 0.776 | 0.723 | 0.667 | 0.736 | 0.765 | 0.438 | 0.21 | 0.113 | 0.802 | 0.764 | 0.822 | 0.598 |  |  |  |  |
| NCI-H1650 | 0.878 | 0.786 | 0.932 | 0.523 | 0.622 | 0.171 | 0.195 | 0.206 | 0.201 | 0.19 | 0.223 |  | 0.208 | 0.217 |  |  |  |  |
| NCI-H322M | 0.804 | 0.82 | 0.791 | 0.671 | 0.53 | 1.23 | 1.24 | 1.13 | 0.983 | 0.986 | 1.2 |  | 1.43 | 1.2 | 0.559 | 0.543 | 0.51 |  |
| SW 1573 | 0.431 | 0.455 | 0.406 | 0.341 | 0.311 | 1.18 | 0.897 | 0.831 | 0.776 | 0.732 | 0.896 | 0.945 | 1.03 | 1.07 |  |  |  |  |
| HCC-827 | 0.601 | 0.678 | 0.768 | 0.499 | 0.503 | 0.973 | 1.07 | 1.06 | 1.12 | 1.05 | 0.968 |  | 0.765 | 1.16 | 0.234 | 0.198 | 0.265 |  |
| LU99A | 0.245 | 0.282 | 0.268 | 0.287 | 0.232 | 1.11 | 0.967 | 0.981 | 0.604 | 0.252 | 1.02 | 1.07 | 1.05 | 1.04 | 0.369 |  | 0.385 | 0.353 |
| LK-2 | 0.636 | 0.464 | 0.74 | 0.301 | 0.328 |  |  |  |  |  |  |  |  |  | 0.397 | 0.406 | 0.312 | 0.428 |
| EMC-BAC-2 | 0.492 | 0.382 | 0.498 | 0.347 | 0.318 | 1.07 | 1.08 | 0.988 | 0.872 | 0.568 | 0.984 | 1.02 | 0.899 | 0.835 | 1.06 | 0.851 | 1.05 | 1.09 |
| NCI-H2342 | 0.448 | 0.429 | 0.405 | 0.367 | 0.266 |  |  |  |  |  |  |  |  |  | 0.462 | 0.47 | 0.518 | 0.499 |
| NCI-H460 | 0.446 | 0.501 | 0.496 | 0.42 | 0.375 | 1.41 | 1.14 | 0.862 | 0.94 | 0.139 | 0.982 | 1.1 | 0.932 | 1.04 | 0.579 |  | 0.619 | 0.604 |
| NCI-H441 | 0.549 | 0.478 | 0.733 | 0.46 | 0.236 | 0.605 | 0.254 | 0.476 | 0.381 | 0.28 | 0.336 | 0.482 |  | 0.412 | 1.09 | 1.16 | 1.03 | 1.1 |
| NCI-H661 | 0.734 | 0.773 | 0.878 | 0.732 | 0.749 | 0.811 | 0.734 | 0.802 | 0.666 | 0.395 | 0.877 | 0.663 | 0.765 | 0.778 |  |  |  |  |
| NCI-H727 | 0.816 | 0.708 | 0.768 | 0.754 | 0.448 | 0.915 | 0.9 | 0.896 | 0.766 | 0.682 | 0.927 | 0.812 | 1.35 | 0.54 | 0.555 | 0.744 | 0.59 | 0.468 |
| NCI-H1651 | 0.182 | 0.188 | 0.203 | 0.198 | 0.17 | 0.929 | 0.954 | 0.884 | 0.929 | 0.737 | 0.851 | 0.949 | 0.769 | 1 | 0.407 | 0.4 | 0.467 | 0.407 |
| NCI-H1355 | 0.747 | 0.727 | 0.807 | 0.629 | 0.519 | 1.24 | 1.19 | 1.01 | 0.926 | 0.528 | 1.21 | 1.19 | 1.15 | 1.23 | 0.672 | 0.603 | 0.698 | 0.663 |
| NCI-H1793 | 0.805 | 0.714 | 0.685 | 0.495 | 0.367 |  |  |  |  |  |  |  |  |  | 0.445 | 0.131 | 0.492 | 0.243 |
| NCI-H1666 | 0.771 | 0.774 | 0.816 | 0.704 | 0.688 | 0.707 | 0.9 | 0.688 | 0.425 | 0.372 | 0.839 |  | 0.98 | 0.759 | 0.782 | 0.729 | 0.829 | 0.73 |
| NCI-H838 | 0.774 | 0.754 | 0.744 | 0.637 | 0.613 | 0.751 | 0.71 | 0.78 | 0.531 | 0.325 | 0.707 | 0.723 |  | 1.15 | 0.899 | 0.709 | 0.918 | 0.955 |
| NCI-H1975 | 0.689 | 0.859 | 0.838 | 0.563 | 0.625 | 0.41 | 0.337 | 0.464 | 0.318 | 0.274 | 0.361 | 0.313 | 0.24 | 0.385 | 0.689 | 0.396 | 0.654 | 0.697 |
| A-427 | 0.721 | 0.724 | 0.762 | 0.609 | 0.613 | 1.13 | 0.965 | 0.967 | 0.803 | 0.578 | 0.885 | 0.998 | 0.962 | 1.03 | 0.696 |  | 0.792 | 0.709 |
